Literature values in US20230210769A1, “METHODS OF TREATMENT USING NICLOSAMIDE” (priority 2020, published 2023).

How the values were obtained:
[1] = test system: SARS-CoV-2 (a.k.a. 2019-nCoV)
[2] = test system: SARS-CoV, influenza virus, MERS-CoV, ZIKV, JEV, HCV, EBOV, HRVs, CHIKV, HAdV, EBV

## O=C(Nc1ccc([N+](=O)[O-])cc1Cl)c1cc(Cl)ccc1O [niclosamide, 5-chloro-N-(2-chloro-4-nitrophenyl)-2-hydroxybenzamide]
[1]
  anti-viral effects against SARS-CoV-2: anti-viral effects
[2]
  anti-viral effects in vitro against various viral infections: anti-viral effects in vitro
